Assay results taken from a melting point compilation (Tetko et al.; mined from patent text by program, amines drawn as free bases though some values may be those of a salt).

Structure (SMILES)	melting point [°C]
O=C(O)c1ccc(N2C(=O)C3C4C=CC(C4)C3C2=O)cc1 (stereo not given)	224 to 228
CCOC(=O)c1c(C(F)(F)F)nc2c(C(F)(F)F)cccc2c1O	68
CSC1=NCCN1C(=O)c1cccnc1Cl	100 to 102
O=C1N=c2ccc(OCCBr)cc2=N1	225 to 226
Cc1c2c(c(Cc3ccc(C(C)C)cc3)c(C)c1NC(=O)CC(C)(C)C)OCC2	201 to 202
COc1cc(C)c(C(=O)c2c(C)cccc2OC)c(OC)c1OC	84
N#CC#Cc1ccc(O)cc1	134 to 137
Brc1ccc2c(c1)CC(N1CCNCC1)c1ccccc1S2 (stereo not given)	112 to 115
CCC(CC)Oc1cc(C)nc2c1NC(=O)CN2c1c(C)cc(C)cc1C	179 to 181
COc1ccc(C2Cc3c(cccc3C(F)(F)F)NC(=O)C2=O)cc1 (stereo not given)	221 to 223
COC(=O)Cn1c(C(=O)NC(N)=S)c(C)c2cc(C)ccc21	210 to 212
COc1cc(C)c(Br)cc1C	38.4
OC(c1cccc(Oc2ccccc2)n1)C(F)(F)F (stereo not given)	51.5 to 53.5
Clc1ccc2nc(N3CCN(c4ncccc4Cl)CC3)[nH]c2c1	214 to 215
O=S(=O)(Cl)c1ccc(-c2cccc(F)c2)s1	75 to 84
O=Cc1cnc(-c2ccccc2Cl)s1	95 to 97
C[Si](C)(C)CCOCn1cc(C#N)c(=O)c2cc([N+](=O)[O-])c(Cl)cc21	200 to 202
CN(C[C@H]1CC[C@H](c2nc3ccccc3n2C)CC1)C(=O)OCc1ccccc1	141 to 142
CC(O)c1nccc2c1CCCC2 (stereo not given)	60 to 61
O=C(O)CO[C@@H]1CCCC[C@H]1NC(=O)Nc1ccccc1 (relative stereo)	166 to 168

Structure (SMILES)	melting point [°C]
O=C1O[C@@H](Cn2ccnn2)CN1c1ccc(-c2ccc(CN3CCOCC3)nc2)c(F)c1	175
CCCCCN1N=C(c2ccc3c(c2)N(S(C)(=O)=O)CCO3)CCC1=O	138 to 139
CCCCCN(CCC12CC3CC(CC(C3)C1)C2)C(=O)NCc1ccncc1	96.5 to 108
CN(CN1C(=O)c2ccccc2C1=O)c1c(S(=O)C(F)(F)F)c(C#N)nn1-c1c(Cl)cc(C(F)(F)F)cc1Cl (stereo not given)	163
Oc1cc2c(cc1O)OCC(c1cccc(C(F)(F)F)c1)C2 (stereo not given)	139 to 141
FC(F)(F)c1cccc(-c2c[nH]c(C3CCN(c4ncnc5[nH]ncc45)CC3)n2)c1	281
CCOC(=O)C(Cc1c[nH]c2cc(Cl)cc(Cl)c12)=NO	175 to 176
CN1C(=O)NC(Cc2ccccc2)C1=O (stereo not given)	172
O=C(O)CCCCCCCCCCCCCCCCCCC(=O)n1nnc2ccccc21	112
Cc1cc(-c2ccc(OC3SCC(O)C(O)C3O)c(F)n2)ccn1 (stereo not given)	159 to 162
N#CC1(O)COc2ccccc2OC1	108 to 110
O=C(O)CC(CC(=O)O)c1cc(C(=O)O)n(CC(=O)O)c1	130
CC(C)(C)NC(=O)N1C(=O)C(C(=O)c2cccs2)c2ccc(Cl)cc21 (stereo not given)	160 to 162
CC1(C)C(=O)N(c2ccc(C#N)c(C(F)(F)F)c2)C(=O)N1CCCCCN1C(=O)N(c2ccc(C#N)c(C(F)(F)F)c2)C(=O)C1(C)C	167 to 169
COc1cc2ccc(C3CO3)cc2cc1OC (stereo not given)	115 to 117
CCCn1c(Cl)cc2cnc(C)n2c1=O	125 to 126
O=C1NCCc2cc(O)ccc21	204 to 206
N#CCCCC1Sc2ccccc2NC1=O (stereo not given)	107 to 108
CCc1nc(C)c(C(=O)Nc2cc(Oc3ccc4nc(NC(=O)C5CC5)cn4n3)ccc2F)o1	228
CN(C)C1(c2ccccc2)CCC(CNC(=O)N2CCC(c3c[nH]c4ccccc34)C2)CC1 (stereo not given)	103 to 106

Structure (SMILES)	melting point [°C]
Cc1c(C(=O)c2cccc(C(F)(F)F)c2F)c2ccc(Cl)c(Cl)c2n1CCCNS(C)(=O)=O	181
O=c1[nH]c2ccccc2n1CCOC1CCCCO1 (stereo not given)	115
N#CSc1c(C(F)(F)F)nn(-c2c(Cl)cc(C(F)(F)F)cc2Cl)c1N	49 to 50
CC(CCCc1ccc(F)cc1)c1cc(O)c2c(c1)OC(C)(C)c1ccncc1-2 (stereo not given)	72 to 74
CC(C)c1ccc(C(C)C)n1NC1=NCCN1	230 to 232
C[C@@H](O)c1nccc(N2CCN(Cc3ccccn3)CC2)n1	68 to 70
CCN1c2ncc(CCl)cc2C(=O)N(C)c2ccc(Cl)nc21	133 to 134
COc1cccc2c1OC(CO)CN2C(=O)OC(C)(C)C (stereo not given)	65 to 68
COC1(OC)CCC(O)(c2ccc(F)cc2)CC1	94 to 99
CCCN(c1nc(-c2ccc(OC)cc2Cl)c(C)s1)c1cc(C(C)=O)ccc1OC	50
CCCOc1ccccc1-c1nc2nc(NCCCSC)ncc2c(=O)[nH]1	173 to 174
CCc1cc2c(s1)SCCc1cc(=O)n(C)nc1-2	168 to 170
COc1cc(CO)ncc1C	102 to 104
CCCCCCN(C(=O)Cc1ccccc1)c1nnc(C)s1	90
CCCCCCCCCCCCCCOc1ccc(CC(=O)OC)cc1Cl	24 to 25
CC(=O)N(NC(N)=S)c1ccc([N+](=O)[O-])cc1	242
CCOC(=O)c1csc(C2CCC2)n1	48 to 50
O=C(CCC(=O)N1CCC[C@H]1C(=O)O)c1ccc(F)cc1	127 to 129
COc1ccc(-c2coc3c(C)c(OCC4CO4)ccc3c2=O)cc1OC (stereo not given)	214

Now from value to compound:

melting point [°C]	Structure (SMILES)
184	O=C(/C=C/c1cccc(S(=O)(=O)N2CCN(CCc3ccc4ccccc4c3)CC2)c1)NO
272 to 273	CNc1cc(NS(=O)(=O)c2ccc(Cl)cc2)nc(NC)n1
135	O=C(O)Cc1cc(N=Nc2ccc(S(=O)(=O)Nc3ccccn3)cc2)ccc1O
198	COc1cccc2c1CCCC2=NNc1nc(-c2ccc(F)cc2)cs1
72	CCN(CC)C(=O)Oc1cc(-c2cccs2)nc2ccccc12
167 to 169	O=c1[nH]c(CCCOc2cccc(CN3CCCCC3)c2)ncc1Cc1ccnc(O)c1
63	CCOC(=O)C(Sc1ccc(O)cc1)c1ccc(Cl)cc1 (stereo not given)
182 to 183	O=C(Oc1cc2ccccc2cc1OC(=O)c1cc(O)c(O)c(O)c1)c1cc(O)c(O)c(O)c1
121 to 122	CCOC(=O)c1nnc(-c2ccccc2)cc1-c1cccc([N+](=O)[O-])c1
154 to 156	CCCOc1ccc(CNc2cc(C(=O)Nc3ccccc3)ccc2OC)cc1
138 to 140	CC(=O)NC[C@H]1CN(c2ccc(N3C[C@H]4CN(C(=O)COCc5ccccc5)C[C@H]4C3)c(F)c2)C(=O)O1
103 to 105	CON(C(=O)c1ccc(C(=O)C(C)(C)C)cc1)C(=O)c1ccc(C(=O)C(C)(C)C)cc1
263 to 266	O=C(O)c1cccc2cc(Oc3c(Cl)cc(NS(=O)(=O)c4ccc(Cl)cc4Cl)cc3Cl)cnc12
216 to 218	COc1nc2sc(S(=O)(=O)Cc3ccccc3)nn2c(=O)c1[N+](=O)[O-]
66 to 68.5	COc1cccc(CNC(=O)c2ccc(COC3CCCCO3)cc2)c1 (stereo not given)
233 to 235	Cc1ccc2c(O)ccnc2c1
174 to 178	O=S(=O)(NC(Cc1ccc(O)cc1)c1ccccc1)c1ccc(Cl)cc1 (stereo not given)
218 to 220	CC(=O)c1cccc(-c2nc(Nc3ccc(OC(F)(F)F)cc3)cc(N3CCOCC3)n2)c1
193 to 194	COc1ccc(C(=O)N[C@H]2CCN(C)C[C@H]2c2ccc3c(c2)OCO3)cc1OC (relative stereo)
106	CCN(CC)CCOc1ccc(Nc2ncc3c(n2)N(Cc2ccccc2)C(=O)N(c2c(Cl)cccc2Cl)C3)cc1
199	COc1ccc2ccc(Nc3cc(-c4ccc(C(F)(F)F)cc4)ncn3)cc2n1

melting point [°C]	Structure (SMILES)
126 to 127	O=C(O)CCCCCNS(=O)(=O)c1ccc(Cl)cc1
124 to 125	CN1C(=O)N(CC(COc2ccc(-c3ccc(Cl)cc3)cc2)N(O)C=O)C(=O)C1(C)C (stereo not given)
59 to 61	Nc1ccccc1CCc1ccccn1
190 to 192	COc1ccc(CC(=O)c2c(O)c3cccnc3n(-c3ccccc3)c2=O)cc1
228 to 230	N#CC(C(=O)NCc1ccccc1Cl)C(=O)c1nn(-c2ccccc2)c2c1CSc1ccccc1-2 (stereo not given)
130 to 133	CC(C)c1nn(-c2ncccn2)c(-c2ccc(F)cc2)c1Br
96	CC(=O)OCCCN1CCC(CNC(=O)[C@@H]2CCCN2S(=O)(=O)c2ccc(Cl)c(COc3cccc4c(-n5ccnc5)cc(C)nc34)c2Cl)CC1
114 to 115	O=c1oc(-c2cccc(Oc3ccccc3)c2)cc(O)c1SCCc1ccccc1
181 to 184	OCc1cnn(C(c2ccccc2)(c2ccccc2)c2ccccc2)c1
190 to 193	CC(C)n1c(-c2ccccc2)nc(-c2ccc(F)cc2)c1CO
196 to 198	Cc1oc(-c2ccccc2)nc1CCOc1ccc(NC(=O)C(=O)O)cc1
171 to 172	O=C(O)CC1=C(n2nc(-c3c(-c4ccccc4)nn4ccccc34)ccc2=O)CCCCC1
132 to 134	Cc1ncc(-c2ccc(F)cc2)n1-c1ccc(Cl)cc1
167 to 168	O=C(O)CN(C(=O)CCCCl)c1csc2ccccc12
179 to 184	COc1ccc(C2=NN(C3CCN(S(=O)(=O)c4ccc(C)cc4)CC3)C(=O)CC2)cc1OC
135 to 136	CCCc1c(OCCCS(=O)(=O)c2ccc(C3=CCC(=O)O3)cc2)ccc(C(C)=O)c1O
238 to 240	OCc1ccc(-c2ccc3nc(-c4ccccc4)cn3c2)cc1
115 to 118	COC(=O)Cc1ccccc1S(=O)(=O)NC(=O)Nc1nc(Cl)cc(Cl)n1
159 to 161	Cc1ccc(C2(CNC(=O)Nc3c(C(C)C)cccc3C(C)C)CCCC2)cc1
128 to 130	CCCn1cc(-c2ccc3nnn(Cc4ccc5ncccc5c4)c3n2)cn1
